According to publication PMC12157126, “Saturation kinetics and specificity of transporters for L-arginine and asymmetric dimethylarginine (ADMA) at the blood-brain and blood-CSF barriers” (PLOS One, 2025):
Values joined by “and” are separate entries in the source; they are usually repeats but may differ in a detail not shown here. Equal entries are not always repeated. Where two headings read alike, the source gives them in different places. Each block holds one compound with its values, some of them ahead of it.

Key:
[1] = system: blood-brain and blood-CSF barriers; details: male, BALB/c, mouse, in vivo, 10 min
Procedure: (§1) The in situ brain/choroid plexus perfusion method was performed as previously described and will only be briefly detailed here. […] At the end of the perfusion period a CSF sample was taken from the cisterna magna, the animal was decapitated, the brain removed and samples taken under a Leica S4E L2 stereomicroscope (Leica; Buckinghamshire, UK). […] The circumventricular organs (CVOs) including the choroid plexus, pituitary gland and pineal gland were also sampled. Brain samples were also taken for capillary depletion analysis.
It is specifically used in brain samples (including brain homogenate and brain supernatant) to measure the vascular space at all perfusion time points. At later time points, in particular, it may also represent the capillary endothelial cell volume and/ or diffusion across the brain capillary wall and into the brain interstitial fluid. In the pellet samples it will measure extracellular fluid and may also represent capillary endothelial cell volume. […] It may also represent any accumulation into the cells of the choroid plexus.

[2] = In situ brain/choroid plexus perfusion with capillary depletion: CNS uptake of [3H]-arginine in absence and presence of transporter inhibitors; assay type: in vivo, adult male BALB/c mice; design: Difference (Arginine - Sucrose): unit not given here; details: male, BALB/c, mouse, 10 mins, 5ml/min, per mouse
Procedure: as §1
(§2) Both the physiological capillary depletion buffer and dextran solution were maintained at 4 °C to halt any cell metabolism and transport processes, and to reduce any cellular or protein damage due to heat generated from the homogenisation process. The whole brain homogenate was then taken for dextran density centrifugation (5,400 x g) and 4 °C to produce an endothelial cell-enriched pellet and supernatant containing brain parenchyma.
(§3) The transporter proteins these inhibitors target are listed in S1 Table in S1 File.
(§4) % change=RTissue−RInhibition /RTissue× 100 (2)

[3] = system: blood-brain and blood-CSF barriers; assay: as above; assay type: in vivo, adult male BALB/c mice; design: Difference (Arginine - Sucrose): unit not given here; details: for uptake of [3H]-arginine: [14C]-sucrose corrected; for Arginine, tissue/plasma ratio / Difference (Arginine - Sucrose): 10 mins, 5ml/min, per mouse
Procedure: as §1, §2, §3, §4

[4] = system: blood-brain and blood-CSF barriers; assay: Self-inhibition experiments: [3H]-ADMA uptake with 0.5-500 μM unlabelled ADMA and kinetic constants (Km, Vmax, Kd); assay type: in vivo, adult male BALB/c mice; design: [3H] ADMA, hippocampus / [3H] ADMA, thalamus: unit not given beside the values
[5] = system: NO production; design: method as in PMID 17082183; details: cited from earlier work
[6] = system: CAT-1; details: CAT-1 transports ADMA; cited from earlier work
[7] = CONTROL, 10 mins, 5ml/min, single mice

distribution into capillary endothelial cells, times lower than into choroid plexus [1]: 31.4 times
SMILES: OC[C@H]1O[C@@](CO)(O[C@H]2O[C@H](CO)[C@@H](O)[C@H](O)[C@H]2O)[C@@H](O)[C@@H]1O [[^14C]-sucrose, sucrose]

Kp at 10 min ([2]; cerebellum, Arginine, tissue/plasma ratio, cerebellum, + 4mM BCH): 0.607
Kp at 10 min ([2]; cerebellum, Difference (Arginine - Sucrose), cerebellum, + 4mM BCH): 0.575
Kp at 10 min, […] ([2]; cerebellum, with 20 mM L-homoarginine, Arginine, tissue/plasma ratio, cerebellum, + 20mM L-Homoarginine): 0.0312
Kp at 10 min, […] ([2]; choroid plexus, Arginine, tissue/plasma ratio, choroid plexus, + 4mM BCH): 2.01
Kp at 10 min ([2]; choroid plexus, Difference (Arginine - Sucrose), choroid plexus, + 4mM BCH): 1.85
Kp at 10 min ([2]; frontal cortex, Arginine, tissue/plasma ratio, frontal cortex, + 4mM BCH): 0.649
Kp at 10 min ([2]; frontal cortex, Difference (Arginine - Sucrose), frontal cortex, + 4mM BCH): 0.617
Kp at 10 min ([2]; frontal cortex, with L-homoarginine 20 mM in the artificial plasma, Arginine, tissue/plasma ratio, frontal cortex, + 20mM L-Homoarginine): 0.0351
Kp at 10 min ([2]; hippocampus, Arginine, tissue/plasma ratio, hippocampus, + 4mM BCH): 0.477
Kp at 10 min ([2]; hippocampus, Difference (Arginine - Sucrose), hippocampus, + 4mM BCH): 0.457
Kp at 10 min ([2]; occipital cortex, Arginine, tissue/plasma ratio, occipital cortex, + 4mM BCH): 0.631
Kp at 10 min ([2]; occipital cortex, Difference (Arginine - Sucrose), occipital cortex, + 4mM BCH): 0.6
Kp at 10 min, […] ([2]; occipital cortex, with 20 mM L-homoarginine, Arginine, tissue/plasma ratio, occipital cortex, + 20mM L-Homoarginine): 0.0199
Kp at 10 min ([2]; whole brain homogenate, Arginine, tissue/plasma ratio, homogenate, + 4mM BCH): 0.353
Kp at 10 min ([2]; whole brain homogenate, Difference (Arginine - Sucrose), homogenate, + 4mM BCH): 0.332
Kp at 10 min, […] ([2]; with 20 mM L-homoarginine, Arginine, tissue/plasma ratio, supernatant, + 20mM L-Homoarginine): 0.0216
uptake into frontal cortex, times higher than into CSF ([3]; 10 minutes): 5.7 times
uptake into pellet, times lower than into choroid plexus ([3]; 10 minutes): 39.5 times
uptake of [3H]-arginine ([3]; CSF, 10 minutes): 9.53 ± 2.41 ml.100g^-1
uptake of [3H]-arginine ([3]; capillary endothelial cell enriched pellet, 10 minutes): 6.47 ± 1.018 ml.100g^-1
uptake of [3H]-arginine ([3]; choroid plexus, 10 minutes): 255.86 ± 30.41 ml.100g^-1
uptake of [3H]-arginine ([3]; frontal cortex, 10 minutes): 54.65 ± 9.21 ml.100g^-1
Difference (Arginine - Sucrose) ([3]; thalamus): 0.929 and 0.9992 and 0.362 and 0.5168
SMILES: N=C(N)NCCC[C@H](N)C(=O)O [[^3H]-arginine, L-arginine]
Arginine, tissue/plasma ratio ([3]; caudate nucleus): 0.6618 and 0.8652 and 0.401 and 0.4938 and 0.3347 and 0.5216
Difference (Arginine - Sucrose) ([3]; caudate nucleus): 0.6456 and 0.7471 and 0.378 and 0.4593 and 0.3101 and 0.4829
Arginine, tissue/plasma ratio ([3]; choroid plexus): 3.243 and 3.765 and 2.2598 and 3.422 and 1.518 and 2.959
Difference (Arginine - Sucrose) ([3]; choroid plexus): 3.028 and 3.467 and 2.014 and 2.791 and 1.394 and 2.658
Arginine, tissue/plasma ratio ([3]; frontal cortex): 0.8204 and 0.8688 and 0.3825 and 0.5285 and 0.3141 and 0.5494
Difference (Arginine - Sucrose) ([3]; frontal cortex): 0.7931 and 0.8428 and 0.3551 and 0.4902 and 0.2926 and 0.505
Arginine, tissue/plasma ratio ([3]; hippocampus): 0.5129 and 0.6918 and 0.3896 and 0.4547 and 0.2706 and 0.4979
Difference (Arginine - Sucrose) ([3]; hippocampus): 0.4962 and 0.6689 and 0.3625 and 0.4201 and 0.2493 and 0.4621
Arginine, tissue/plasma ratio ([3]; hypothalamus): 0.9811 and 1.538 and 0.3381 and 0.6951 and 0.2905 and 0.3696
Difference (Arginine - Sucrose) ([3]; hypothalamus): 0.9489 and 1.477 and 0.3149 and 0.634 and 0.2579 and 0.3397
Arginine, tissue/plasma ratio ([3]; occipital cortex): 0.6317 and 0.7248 and 0.327 and 0.4186 and 0.2687 and 0.5347
Difference (Arginine - Sucrose) ([3]; occipital cortex): 0.6113 and 0.7014 and 0.3051 and 0.3893 and 0.251 and 0.4973
Difference (Arginine - Sucrose) ([3]; pineal gland): 1.49 and 0.1187 and 0.66 and 1.347 and 0.9026 and 0.5878
Arginine, tissue/plasma ratio ([3]; pituitary gland): 3.254 and 2.641 and 1.189 and 1.192 and 1.144 and 2.275
Difference (Arginine - Sucrose) ([3]; pituitary gland): 3.08 and 2.441 and 0.973 and 1.116 and 1.019 and 2.001
Arginine, tissue/plasma ratio ([3]; thalamus): 0.9502 and 1.029 and 0.4051 and 0.5618 and 0.2525 and 0.5368

SMILES: CN(C)C(N)=NCCC[C@H](N)C(=O)O.Cl.Cl [unlabelled ADMA, N^G,N^G-dimethylarginine dihydrochloride]
decrease of [3H]-ADMA uptake ([4]; 500 μM unlabelled ADMA, frontal cortex): 79.9%
effect on uptake of [3H]-ADMA (62.5 nM) ([4]; 0.5, 3.0, 10, 100 and 500μM un-labelled ADMA, all brain regions): significantly self-inhibited
Difference ([3H] ADMA minus [14C] Sucrose), hippocampus [4, 7]: 0.1991 and 0.2866 and 0.2044 and 0.2062
Difference ([3H] ADMA minus [14C] Sucrose), hypothalamus [4, 7]: 0.21 and 0.3614 and 0.2746 and 0.3021
Difference ([3H] ADMA minus [14C] Sucrose), occipital cortex [4, 7]: 0.1943 and 0.2753 and 0.1841 and 0.2419 and 0.2303
Difference ([3H] ADMA minus [14C] Sucrose), thalamus [4, 7]: 0.1695 and 0.2656 and 0.1763 and 0.2233 and 0.2154
[3H] ADMA, hippocampus [4, 7]: 0.2134 and 0.305 and 0.2049 and 0.2208 and 0.2239
[3H] ADMA, hypothalamus [4, 7]: 0.2341 and 0.3969 and 0.298 and 0.3627 and 0.4134
[3H] ADMA, occipital cortex [4, 7]: 0.2132 and 0.2962 and 0.2074 and 0.2625 and 0.2565
[3H] ADMA, supernatant [4, 7]: 0.1192 and 0.1611 and 0.1028 and 0.139 and 0.1685
[3H] ADMA, thalamus [4, 7]: 0.1804 and 0.2881 and 0.1916 and 0.2507 and 0.2348
inhibition of NO production ([5]; normal ADMA concentrations within cells): 10%
inhibition of NO production ([5]; plasma ADMA concentrations higher than normal): 70%
Km [6]: 183 ± 21 µM
